System: human IgE antibodies
Assay: Human IgE antibody binding to SPOT-synthesized 12-meric Api g 1.0101 peptide arrays on N-CAPE cellulose membranes, probed with sera, HRP-labeled anti-human IgE, chemiluminescence
Conditions: for celery allergic individuals responding to the peptide (positive IgE antibody binding spot) / number of celery allergic patients whose sera IgE antibodies bind the sequence / recognition by sera of celery allergic patients: sera of 21 celery allergic patients; for celery allergic individuals responding to the peptide (positive IgE antibody binding spot) / IgE binding in sera of healthy controls / recognition by sera of celery allergic patients: diluted 1:5; for celery allergic individuals responding to the peptide (positive IgE antibody binding spot): positive if SInorm above the membrane's cut off value; for IgE binding in sera of healthy controls: sera of 17 healthy subjects
Source text: The protein sequence of the major allergen in celery Api g 1.0101 (UniprotKB/Swissprot entry P49372) was dissected into sets of overlapping peptides (pepscan). Subsequently, these sequences were synthesized as peptide arrays on cellulose membranes according to SPOT technology. A highly specific secondary anti-human IgE antibody with minimum cross-reactivity towards cellulose membrane-bound peptides was employed.
Synthetic arrays were probed with sera randomly chosen from a well described cohort of subjects, including 21 patients with a defined allergic reaction to celery and 17 healthy individuals. Captured human IgE antibodies were detected by a HRP-labeled secondary antibody and binding was visualized by chemiluminescence.
The optimal conditions for screening the sera of 21 celery allergic patients and 17 healthy controls were as follows: (i) replica of a 12-meric pepscan with a shift of three amino acids covering the Api g 1.0101 sequence synthesized on high-loaded N-CAPE membranes (640 nmol/cm2 - 760 nmol/cm2); (ii) prior to treatment with sera, membranes were blocked with the Sigma-Genosys blocking buffer for 2 h at room temperature; (iii) arrays were probed for 16 h at 4°C with diluted sera (1:5) for IgE antibody binding; (iv) the captured human IgE antibodies were detected with the HRP-labeled anti-human IgE antibody (A 9667, Sigma-Aldrich) and visualized by chemiluminescence; (v) spot signal intensities were measured on a LumiImager and processed with the LumiAnalyst software. To check the reproducibility of our screening procedure, three different peptide arrays were incubated and evaluated for each person (allergic and healthy).
Sera binding patterns could be reproduced in repeated incubation experiments. Although inter-membrane absolute spot signal intensities differed, the relative differences between spot signal intensities were nearly the same. This enabled comparison of spot signal intensities from different membranes by applying an additional normalization procedure. We defined an IgE antibody binding spot as positive if its normalized signal intensity (SInorm) was higher than the calculated cut off value of the appropriate membrane.
Human IgE antibody binding studies: The spotted peptide arrays were prewashed with ethanol (1 × 10 min), washed with Tris-buffered saline (TBS), pH 8.0 (3 × 10 min), and blocked for 2 h at room temperature with blocking buffer. The membranes were incubated with the patients' sera (dilution 1:5) in blocking buffer overnight at 4°C, washed with TBS, followed by a second incubation with anti-human IgE antibody (ε-chain specific) conjugated with horse radish peroxidase (HRP) (A 9667, Sigma-Aldrich, St. Louis, USA) in blocking buffer for 2 h at room temperature. To remove excess antibody the membrane was washed with TBS (3x10 min). Detection was performed with Uptilight HRP blot chemiluminescent substrate (Uptima, Interchim, Montiuçon Cedex, France) with an exposure time of 2 min. The signal intensities were recorded as Biomedical Light Units (BLU) by a Lumi Imager™ (Boehringer Mannheim GmbH, Mannheim, Germany) using the LumiAnalyst software.
Measurement of spot signal intensities: Analysis and measurement of spot signal intensities were executed with the LumiAnalyst software, version 3.1 (Boehringer Mannheim GmbH, Mannheim, Germany). The spot signal was calculated from a circular region around the spot center detected on the image. To guarantee uniform spot signal assessment, and reduce signal variations caused by the background, we choose the background correction method in the LumiAnalyst software. This method allows local background correction when calculating the BLU of each spot. The background values of each spot were determined from BLU values around the spot with a safety margin and normalized to the area of the spot. Comparing replicas of several membranes, incubated under identical conditions, we found signal intensity deviations of a factor of 11. […]

| Sequence | celery allergic individuals responding to the peptide (positive IgE antibody binding spot) [%] | IgE binding in sera of healthy controls | number of celery allergic patients whose sera IgE antibodies bind the sequence | other results |
| --- | --- | --- | --- | --- |
| GDGGPGTLKIIT [compound 16, 12-meric peptide of Api g 1.0101] | 38 |  |  |  |
| GGPITTMTLRID [compound 21, 12-meric peptide of Api g 1.0101] | 29 |  |  |  |
| IFQGFVIDVDTV [peptide 7, 12-meric peptide of Api g 1.0101] | 38 | not reacting with any sera IgE antibody from healthy subjects | at least six |  |
| IITLPDGGPITT [compound 19, 12-meric peptide of Api g 1.0101] | 29 |  |  |  |
| NHVVLVPTADGG [peptide 34, 12-meric peptide located in the C-terminal region of Api g 1.0101] | 29 | not reacting with any sera IgE antibody from healthy subjects | at least six |  |
| PTADGGSICKTT [compound 36, 12-meric peptide of Api g 1.0101] | 43 |  |  |  |
| VLVPTADGGSIC [peptide 35, 12-meric peptide of Api g 1.0101] | 100 | not reacting with any sera IgE antibody from healthy subjects | at least six | spot signal intensity (average spot signal intensity, Fig. 3): highest measured spot signal intensity; IgE binding in sera of healthy controls (listed as VLVPTADGGSIC): no binding; recognition by sera of celery allergic patients: recognized by the sera from all the celery allergic patients; recognition by sera of celery allergic patients (listed as VLVPTADGGSIC): recognized by all sera of celery allergic patients |
